ChEMBL document CHEMBL4665910, “Novel Thienopyridines as RIPK2 Inhibitors for Treating Inflammatory Bowel Disease” (ACS Med Chem Lett, 2020)

biological target: Receptor-interacting serine/threonine-protein kinase 2 (Homo sapiens, UniProt O43353); assay: Inhibition of RIPK2 (unknown origin) incubated for 1 hr by Lanthascreen TR-FRET assay
Sequence (O43353 whole entry): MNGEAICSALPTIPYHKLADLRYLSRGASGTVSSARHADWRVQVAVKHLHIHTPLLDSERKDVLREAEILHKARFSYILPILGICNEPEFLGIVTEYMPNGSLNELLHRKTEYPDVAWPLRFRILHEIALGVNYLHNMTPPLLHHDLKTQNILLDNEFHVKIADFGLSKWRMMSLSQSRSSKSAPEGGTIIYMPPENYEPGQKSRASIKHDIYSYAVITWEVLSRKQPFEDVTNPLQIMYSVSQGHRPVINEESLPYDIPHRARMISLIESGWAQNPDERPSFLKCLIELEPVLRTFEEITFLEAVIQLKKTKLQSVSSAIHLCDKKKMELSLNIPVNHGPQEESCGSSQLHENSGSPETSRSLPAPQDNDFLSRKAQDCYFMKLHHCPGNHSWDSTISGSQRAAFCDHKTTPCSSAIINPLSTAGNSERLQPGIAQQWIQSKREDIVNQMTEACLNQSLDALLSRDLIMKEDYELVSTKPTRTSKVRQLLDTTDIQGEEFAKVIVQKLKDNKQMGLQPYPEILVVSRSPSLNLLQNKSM

IC50, ≤ 10 nM:
C1=C(c2cc3c(Nc4ccc5scnc5c4)ccnc3s2)CCNCC1
C1=C(c2cc3c(Nc4ccc5scnc5c4)ccnc3s2)C2(CCOC2)NC1 (stereo unspecified)
CC1C(c2cc3c(Nc4ccc5scnc5c4)c(F)cnc3s2)CCCN1C (stereo unspecified)
CC1NCCC1c1cc2c(Nc3cc4ncsc4cc3F)ccnc2s1 (stereo unspecified)
C1=C(c2cc3c(Nc4ccc5scnc5c4)ccnc3s2)C2(CCOCC2)NC1
CC1NCCC=C1c1cc2c(Nc3ccc4scnc4c3)ccnc2s1 (stereo unspecified)
